Assay results from the supplement of paper PMC10307832.

Columns and labels:
Assay in all cases: relative viability (nuclei count vs DMSO), 5 days (fraction); higher = more cells survive
GSK126 + Bortezomib = compound: CC[C@H](C)N1C=C(C2=C(C=C(C=C21)C3=CN=C(C=C3)N4CCNCC4)C(=O)NCC5=C(C=C(NC5=O)C)C)C [GSK126] + CC(C)C[C@H](NC(=O)[C@H](Cc1ccccc1)NC(=O)c1cnccn1)B(O)O [Bortezomib] (partner 0.002 µM)
Outline: (§1)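 Lung cancer cell lines in 1536-well plates were dosed by pin tool the day after seeding, either with one drug alone or with a fixed anchor-drug dose plus five library-drug doses (not always all listed) in √10 steps. After 5 days, cells were fixed and their nuclei stained in one step (final 0.05% Triton X-100, 1% formaldehyde, 1 ug/ml Hoechst), then counted on 4× images. Relative viability is the nuclei count in treated wells divided by that in vehicle wells. Values are medians of duplicate plates.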

MLN4924 + Foretinib = compound: NS(=O)(=O)OC[C@@H]1C[C@@H](n2ccc3c(N[C@H]4CCc5ccccc54)ncnc32)C[C@@H]1O [MLN4924] + COc1cc2c(Oc3ccc(NC(=O)C4(C(=O)Nc5ccc(F)cc5)CC4)cc3F)ccnc2cc1OCCCN1CCOCC1 [Foretinib] (partner 0.25 µM)
Outline: as §1

MLN4924 + Lapatinib = compound: NS(=O)(=O)OC[C@@H]1C[C@@H](n2ccc3c(N[C@H]4CCc5ccccc54)ncnc32)C[C@@H]1O [MLN4924] + CS(=O)(=O)CCNCc1ccc(-c2ccc3ncnc(Nc4ccc(OCc5cccc(F)c5)c(Cl)c4)c3c2)o1 [Lapatinib] (partner 2 µM)
Outline: as §1

MLN4924 + Crizotinib = compound: NS(=O)(=O)OC[C@@H]1C[C@@H](n2ccc3c(N[C@H]4CCc5ccccc54)ncnc32)C[C@@H]1O [MLN4924] + C[C@@H](Oc1cc(-c2cnn(C3CCNCC3)c2)cnc1N)c1c(Cl)ccc(F)c1Cl [Crizotinib] (partner 1 µM)
Outline: as §1

| Cell Line | relative viability (GSK126 + Bortezomib; first compound 0.08 µM) | relative viability (GSK126 + Bortezomib; first compound 0.253 µM) | relative viability (GSK126 + Bortezomib; first compound 0.8 µM) | relative viability (GSK126 + Bortezomib; first compound 2.53 µM) | relative viability (GSK126 + Bortezomib; first compound 8 µM) | relative viability (MLN4924 + Foretinib; first compound 0.04 µM) | relative viability (MLN4924 + Foretinib; first compound 0.1265 µM) | relative viability (MLN4924 + Foretinib; first compound 0.4 µM) | relative viability (MLN4924 + Foretinib; first compound 1.265 µM) | relative viability (MLN4924 + Foretinib; first compound 4 µM) | relative viability (MLN4924 + Lapatinib; first compound 0.04 µM) | relative viability (MLN4924 + Lapatinib; first compound 0.1265 µM) | relative viability (MLN4924 + Lapatinib; first compound 0.4 µM) | relative viability (MLN4924 + Lapatinib; first compound 1.265 µM) | relative viability (MLN4924 + Lapatinib; first compound 4 µM) | relative viability (MLN4924 + Crizotinib; first compound 0.04 µM) | relative viability (MLN4924 + Crizotinib; first compound 0.1265 µM) | relative viability (MLN4924 + Crizotinib; first compound 0.4 µM) | relative viability (MLN4924 + Crizotinib; first compound 1.265 µM) | relative viability (MLN4924 + Crizotinib; first compound 4 µM) |
| --- | --- | --- | --- | --- | --- | --- | --- | --- | --- | --- | --- | --- | --- | --- | --- | --- | --- | --- | --- | --- |
| PC-3 [JPC-3] | 0.823 | 1.01 | 0.786 | 0.817 | 0.856 | 1.05 | 0.976 | 0.688 | 0.375 | 0.293 | 0.478 | 0.51 | 0.277 | 0.261 | 0.262 | 0.986 | 0.909 | 0.477 | 0.34 | 0.293 |
| NCI-H1651 | 1.03 | 0.949 | 0.981 | 1.01 | 0.996 | 0.74 | 0.754 | 0.656 | 0.436 | 0.173 | 0.911 | 0.776 | 0.281 | 0.138 | 0.116 | 0.913 | 0.85 | 0.76 | 0.357 | 0.167 |
| LC-2-ad | 1.03 | 1.04 | 0.935 | 1.02 | 0.986 | 0.845 | 0.793 | 0.592 | 0.212 | 0.186 | 0.561 | 0.505 | 0.143 | 0.104 | 0.107 | 0.517 | 0.419 | 0.341 | 0.264 | 0.156 |
| NCI-H1734 | 0.98 | 0.979 | 1.02 | 0.87 | 0.871 | 0.938 | 0.866 | 0.241 | 0.145 | 0.134 | 1.02 | 0.925 | 0.19 | 0.118 | 0.134 | 0.688 | 0.622 | 0.305 | 0.121 | 0.131 |
| NCI-H460 | 1.34 | 1.1 | 1.06 | 1.09 | 1.18 | 1.01 | 1.09 | 0.855 | 0.297 | 0.0485 | 0.657 | 0.0947 | 0.0407 | 0.016 | 0.0144 | 0.886 | 0.929 | 0.689 | 0.0391 | 0.0185 |
| NCI-H838 | 0.935 | 0.828 | 0.662 | 0.613 | 0.767 | 0.684 | 0.503 | 0.22 | 0.174 | 0.16 | 0.754 | 0.273 | 0.257 | 0.126 | 0.148 | 0.635 | 0.535 | 0.235 | 0.154 | 0.139 |
| NCI-H2347 | 0.931 | 0.924 | 0.917 | 1.36 | 0.89 | 0.832 | 0.906 | 0.567 | 0.528 | 0.402 | 0.746 | 0.897 | 0.487 | 0.338 | 0.412 | 0.525 | 0.53 | 0.484 | 0.42 | 0.412 |
| NCI-H647 | 1.06 | 0.808 | 1.03 | 1.07 | 0.882 | 0.818 | 0.848 | 0.188 | 0.0561 | 0.0661 | 0.817 | 0.539 | 0.0888 | 0.0473 | 0.0818 | 0.925 | 0.665 | 0.197 | 0.0313 | 0.0474 |
| NCI-H520 | 0.745 | 0.709 | 0.571 | 0.522 | 0.754 | 0.732 | 0.502 | 0.409 | 0.305 | 0.205 | 0.594 | 0.437 | 0.323 | 0.17 | 0.162 | 0.431 | 0.491 | 0.338 | 0.168 | 0.151 |
